One assay has as its target FGFR4 kinase (Homo sapiens, UniProt P22455). Put plainly: Inhibition of FGFR4 kinase activity (ULight-labeled JAK-1 peptide, EU665/EU615 reading). The class given is biochemical. The settings on record: FGFR4 kinase 3.85 nM, ATP 100 μM, enzymatic reaction 2 hours. As for the experimental part: (§1) Assay of activity of small molecule compounds on inhibiting FGFR4 kinase and FGFR4 V550L mutant kinase. The assay method was as follows:
(§2) 1) Dilution of Compounds:
(§3) In a 96-well plate a, the compounds were serially diluted 3-fold with DMSO to form 11 concentrations, and the 12th concentration was pure DMSO (as a positive control); In a new 96-well plate b, the above solutions were diluted 25-fold with ultrapure water (DMSO concentration was 4%).
(§4) 2) Transferring Compounds to a 384-Well Plate:
(§5) The above solutions of compounds diluted with ultrapure water in the 96-well plate b were pipetted into corresponding wells of a 384-well plate.
(§6) 3) Adding 4× kinase solution: 2.5 μl of the above 4× kinase solutions were pipetted with a multi-channel pipette into corresponding reaction wells of the 384-well plate, and the mixture was mixed well and pre-reacted at room temperature for 5 minutes.
(§7) 4) Adding 2× substrate/ATP mixture: 5 μl of the above 2× substrate/ATP mixtures were pipetted with a multi-channel pipette into corresponding reaction wells of the 384-well plate.
(§8) 5) Negative control: negative control wells were set up in the 384-well plate by adding 2.5 μl of 4× substrate, 2.5 μl of 4× enzyme solution, 2.5 μl of 1× kinase Assay Buffer and 2.5 μl of ultrapure water containing 4% DMSO to each well.
(§9) 6) Centrifuging, mixing well, and reacting at room temperature in the dark for 2 hours.
(§10) 7) Terminating the Enzymatic Reaction:
(§11) 5 μl of the above 4× stop solutions were pipetted into corresponding wells of the 384-well plate, and the mixture was centrifuged, mixed well, and then reacted at room temperature for 5 minutes.
(§12) 8) Development of the Reaction:
(§13) 5 μl of the above 4× detection solutions were pipetted into corresponding wells of the 384-well plate, and the mixture was centrifuged, mixed well, and then reacted at room temperature for 1 hour.
(§14) 9) The 384-well plate was placed into a plate reader, and the signal was detected using the appropriate program.
(§15) 10) Analysis of IC50: Reading of well=10000*EU665 value/EU615 value Inhibition rate=(reading of positive control well−reading of assay well)/(reading of positive control well−reading of negative control well)*100%
(§16) The corresponding IC50 can be calculated by inputting the drug concentrations and corresponding inhibition rates into GraphPad Prism 5 and processing.
Assay Conditions for Screening FGFR4 Kinase Activity Inhibitory Molecule:
The final concentration of FGFR4 kinase in the reaction system was 3.85 nM, the final concentration of ATP was 100 μM, the final concentration of substrate ULight™-labeled JAK-1 (Tyr1023) Peptide was 100 nM, and the time for enzymatic reaction was 2 hours.
The highest final concentration of the compound in the reaction system was 2.5 μM. After serial 3-fold dilution, there were 11 concentrations in total, and the lowest final concentration was 0.042 nM. The final concentration of DMSO was 1%.

Another assay has as its target FGFR4 V550L kinase (Homo sapiens, UniProt P22455, V550L). In words: Inhibition of FGFR4 V550L mutant kinase activity (ULight-labeled PolyGT, EU665/EU615 reading). The class given is biochemical. The settings on record: FGFR4 V550L kinase 1 nM, ATP 10 μM, enzymatic reaction 2 hours. As for the experimental part: as §1, §2, §3, §4, §5, §6, §7, §8, §9, §10, §11, §12, §13, §14, §15, §16
Assay Conditions for Screening FGFR4 V550L Kinase Activity Inhibitory Molecule:
The final concentration of FGFR4 V550L kinase in the reaction system was 1 nM, the final concentration of ATP was 10 μM, the final concentration of substrate ULight™-labeled PolyGT was 100 nM, and the time for enzymatic reaction was 2 hours.
The highest final concentration of the compound in the reaction system was 2.5 μM. After seral 3-fold dilution, there were 11 concentrations in total, and the lowest final concentration was 0.042 nM. The final concentration of DMSO was 1%.

The next assay addresses T1, Ba/F3 ETV6-FGFR4 cells (Homo sapiens, UniProt P22455).
T1 construct: fused on or other part: N-terminal part of ETV6 (TEL), the oligomerising partner that makes the FGFR4 kinase constitutively active; P41212 (Transcription factor ETV6)
Put plainly: Inhibition of cell proliferation (CCK-8), Ba/F3 ETV6-FGFR4 cells. The class given is cell-based. The settings on record: 72 hours of incubation, read-out: Ba/F3 ETV6-FGFR4 IC50. As for the experimental part:
(§17) Compounds were assayed for inhibiting cell proliferation, and the specific method was as follows: • 1. Cells were cultured to a logarithmic growth phase, pipetted evenly, transferred to a 15 mL centrifuge tube, and centrifuged at 1000 rpm at room temperature for 4 minutes; • 2. The supernatant was discarded; 5 mL of complete medium was added and pipetted evenly; 10 μL of cell suspension was weighed, mixed well with 10 μL of 0.4% trypan blue, and counted under a cell counter; the proportion of living cells was ensured to be above 90%; • 3. The cell suspension was seeded into a 96-well plate (80 μL of cell suspension per well) according to the conditions shown in Table 5; in the outer 36 wells of the 96-well plate, no cells were added but only sterile water was added; only the inner 60 wells were used for cell assay and control; • 4. 5× compound dilution: the compounds were serially diluted 4-fold to give a total of 9 concentrations; 80-fold overall dilution was completed with complete medium, the resulting concentration was 5 times the final drug concentration, and DMSO concentration was 1.25%; • 5. 20 μL of the corresponding compounds with different concentrations were added to each well of assay wells of the 96-well plate; 20 μL of complete medium was added to positive and negative control wells and shaken well; and the final concentration of DMSO in each well was 0.25%; • 6. After 72 hours of incubation, 10 μL of CCK-8 reagent was added to each well and further incubated at 37° C. for 1-2 hours; and the OD value was read at 450 nm; 7. Cell survival rate (%)=[(As−Ab)/(Ac−Ab)]*100% • As: Assay well (medium containing cells, CCK-8, compound) • Ac: Control well (medium containing cells, CCK-8) • Ab: Blank well (medium without cell and compound, CCK-8) • 8. The values were imported into Graphpad Prism 5 software for IC50 calculation.

For assay [1], the target named is T2, Ba/F3 ETV6-FGFR4-V550L cells (Homo sapiens, UniProt P22455, V550L, cells depend on it).
T2 construct: fused on or other part: N-terminal part of ETV6 (TEL), the oligomerising partner of the fusion; already named as the first entry; P41212 (Transcription factor ETV6)
In words: Inhibition of cell proliferation (CCK-8), Ba/F3 ETV6-FGFR4-V550L cells. The settings on record: 72 hours of incubation, read-out: Ba/F3 ETV6-FGFR4-V550L IC50. The class given is cell-based. As for the experimental part:
as §17

14 molecules from patent publication US12582654B2, “Cyano-substituted pyridine and cyano-substituted pyrimidine compound and preparation method therefor and application thereof” (BEIJING SCITECH-MQ PHARMACEUTICALS LIMITED, priority 2019, dated 2026) can be followed below.

The term IC50 denotes the concentration that inhibits the measured activity by half. Read a high IC50 as lower potency.

T1 sequence (P22455 whole entry, change not shown, the tested form may be a part): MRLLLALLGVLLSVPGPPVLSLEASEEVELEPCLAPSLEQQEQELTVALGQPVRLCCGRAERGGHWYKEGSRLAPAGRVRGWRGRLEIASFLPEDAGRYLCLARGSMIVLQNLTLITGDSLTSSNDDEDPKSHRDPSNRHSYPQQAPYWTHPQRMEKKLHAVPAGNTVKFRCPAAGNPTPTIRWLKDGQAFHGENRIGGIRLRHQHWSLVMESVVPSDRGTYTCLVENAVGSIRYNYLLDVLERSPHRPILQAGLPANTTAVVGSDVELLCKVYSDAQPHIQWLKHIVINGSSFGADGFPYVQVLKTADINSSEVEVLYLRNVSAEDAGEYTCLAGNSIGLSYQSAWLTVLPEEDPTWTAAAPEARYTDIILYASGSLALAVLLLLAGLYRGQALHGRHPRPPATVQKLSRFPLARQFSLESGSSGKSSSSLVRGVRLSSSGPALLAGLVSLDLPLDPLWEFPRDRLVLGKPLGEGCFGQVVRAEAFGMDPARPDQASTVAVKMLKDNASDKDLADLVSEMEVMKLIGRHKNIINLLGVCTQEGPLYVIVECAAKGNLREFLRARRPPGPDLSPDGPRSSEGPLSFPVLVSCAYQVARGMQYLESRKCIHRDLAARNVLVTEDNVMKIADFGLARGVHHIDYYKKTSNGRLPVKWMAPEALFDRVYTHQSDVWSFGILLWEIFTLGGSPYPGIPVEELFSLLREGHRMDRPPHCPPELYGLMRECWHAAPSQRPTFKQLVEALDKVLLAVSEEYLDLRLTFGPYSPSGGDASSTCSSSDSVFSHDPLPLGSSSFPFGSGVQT
FGFR4 V550L kinase, sequence (P22455 22-802 V550L): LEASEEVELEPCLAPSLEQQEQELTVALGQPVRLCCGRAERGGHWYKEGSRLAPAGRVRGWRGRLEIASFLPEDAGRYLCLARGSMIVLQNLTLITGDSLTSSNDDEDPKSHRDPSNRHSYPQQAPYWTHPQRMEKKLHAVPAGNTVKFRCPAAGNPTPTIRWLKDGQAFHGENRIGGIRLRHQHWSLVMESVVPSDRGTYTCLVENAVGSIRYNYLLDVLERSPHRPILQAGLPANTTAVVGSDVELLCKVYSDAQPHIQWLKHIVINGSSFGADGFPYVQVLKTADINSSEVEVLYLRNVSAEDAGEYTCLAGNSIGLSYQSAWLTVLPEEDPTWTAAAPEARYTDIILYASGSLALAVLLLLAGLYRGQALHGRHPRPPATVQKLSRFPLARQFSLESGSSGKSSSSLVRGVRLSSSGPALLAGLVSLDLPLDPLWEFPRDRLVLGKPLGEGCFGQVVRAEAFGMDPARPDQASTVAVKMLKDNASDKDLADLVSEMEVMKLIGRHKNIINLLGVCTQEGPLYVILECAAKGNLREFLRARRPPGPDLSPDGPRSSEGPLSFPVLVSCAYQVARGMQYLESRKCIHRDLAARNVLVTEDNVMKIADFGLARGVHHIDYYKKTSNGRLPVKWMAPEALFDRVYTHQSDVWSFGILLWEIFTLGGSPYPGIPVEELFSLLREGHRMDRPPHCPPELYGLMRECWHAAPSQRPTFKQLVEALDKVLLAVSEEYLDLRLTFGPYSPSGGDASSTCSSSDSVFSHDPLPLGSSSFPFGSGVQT
FGFR4 kinase, sequence (P22455 22-802): as the sequence (P22455 22-802 V550L) above, with L529V counted along it
T2 sequence (P22455 whole entry V550L, the tested form may be a part): as the sequence (P22455 whole entry, change not shown, the tested form may be a part) above, with V550L counted along it

As for `C=CC(=O)Nc1cc(N2CCN(C)CC2)ccc1Nc1ncc(C#N)c(Nc2ccccc2OC(C)C)n1` [Example 1, N-(2-((5-cyano-4-((2-isopropoxyphenyl)amino)pyrimidin-2-yl)amino)-5-(4-methylpiperazin-1-yl)phenyl)acrylamide], the IC50 was 0.01 to 0.05 µM against FGFR4 kinase and not above 0.01 µM on FGFR4 V550L kinase. In addition, the GI50 (on Ba/F3 ETV6-FGFR4 cells; in assay [1]) was not above 0.01 µM throughout.

As to `C=CC(=O)Nc1cc(N2CCC(N(C)C)CC2)ccc1Nc1ncc(C#N)c(Nc2ccccc2OC(C)C)n1` [Example 2, N-(2-((5-cyano-4-((2-isopropoxyphenyl)amino)pyrimidin-2-yl)amino)-5-(4-(dimethylamino)piperidin-1-yl)phenyl) acrylamide], the IC50 against FGFR4 kinase was 0.01 to 0.05 µM; on FGFR4 V550L kinase, not above 0.01 µM. For the same molecule, the GI50 (on Ba/F3 ETV6-FGFR4 cells; in assay [1]) was not above 0.01 µM in each case.

On to `C=CC(=O)Nc1cc(N2CCC(N3CCCC3)CC2)ccc1Nc1ncc(C#N)c(Nc2ccccc2OC(C)C)n1` [Example 3, N-(2-((5-cyano-4-((2-isopropoxyphenyl)amino)pyrimidin-2-yl)amino)-5-(4-(pyrrolidin-1-yl)piperidin-1-yl)phenyl) acrylamide], for which the IC50 against FGFR4 kinase was 0.01 to 0.05 µM; against FGFR4 V550L kinase, not above 0.01 µM. Further, the GI50 (at Ba/F3 ETV6-FGFR4 cells; in assay [1]) was not above 0.01 µM each time.

Turning to `C=CC(=O)Nc1cc(N2CCC(N3CCCCC3)CC2)ccc1Nc1ncc(C#N)c(Nc2ccccc2OC(C)C)n1` [Example 4, N-(5-([1,4′-bipiperidin]-1′-yl)-2-((5-cyano-4-((2-isopropoxyphenyl)amino)pyrimidin-2-yl)amino)phenyl) acrylamide], the results for the concentration for half-maximal inhibition (IC50) on FGFR4 kinase and against FGFR4 V550L kinase were 0.01 to 0.05 µM and not above 0.01 µM, respectively. For the same molecule, the GI50 (on Ba/F3 ETV6-FGFR4 cells; in assay [1]) was not above 0.01 µM throughout.

For the molecule `C=CC(=O)Nc1cc(N2CCC(N3CCOCC3)CC2)ccc1Nc1ncc(C#N)c(Nc2ccccc2OC(C)C)n1` [Example 5, N-(2-((5-cyano-4-((2-isopropoxyphenyl)amino)pyrimidin-2-yl)amino)-5-(4-morpholinopiperidin-1-yl)phenyl) acrylamide], the values for the IC50 at FGFR4 kinase and against FGFR4 V550L kinase were 0.05 to 0.1 µM and 0.01 to 0.05 µM, respectively. The GI50 (at Ba/F3 ETV6-FGFR4 cells; in assay [1]) was not above 0.01 µM throughout.

`C=CC(=O)Nc1cc(N2CCC(N3CCN(C)CC3)CC2)ccc1Nc1ncc(C#N)c(Nc2ccccc2OC(C)C)n1` [Example 6, N-(2-((5-cyano-4-((2-isopropoxyphenyl)amino)pyrimidin-2-yl)amino)-5-(4-(4-methylpiperazin-1-yl)piperidin-1-yl)phenyl) acrylamide]: the concentration for half-maximal inhibition (IC50) at FGFR4 kinase and against FGFR4 V550L kinase was not above 0.01 µM throughout. Further, the GI50 (on Ba/F3 ETV6-FGFR4 cells; in assay [1]) was not above 0.01 µM throughout.

For `C=CC(=O)Nc1cc(N2CCN(C)CC2)c(C)cc1Nc1ncc(C#N)c(Nc2ccccc2OC(C)C)n1` [Example 7, N-(2-((5-cyano-4-((2-isopropoxyphenyl)amino)pyrimidin-2-yl)amino)-4-methyl-5-(4-methylpiperazin-1-yl)phenyl) acrylamide], the values for the IC50 against FGFR4 kinase and on FGFR4 V550L kinase were 0.05 to 0.1 µM and 0.01 to 0.05 µM, respectively. Further, the GI50 at Ba/F3 ETV6-FGFR4 cells is not above 0.01 µM; in assay [1], 0.01 to 0.05 µM.

`C=CC(=O)Nc1cc(N2CCC(N(C)C)CC2)c(C)cc1Nc1ncc(C#N)c(Nc2ccccc2OC(C)C)n1` [Example 9, N-(2-((5-cyano-4-((2-isopropoxyphenyl)amino)pyrimidin-2-yl)amino)-5-(4-(dimethylamino)piperidin-1-yl)-4-methylphenyl) acrylamide]: the IC50 at FGFR4 kinase and against FGFR4 V550L kinase was 0.01 to 0.05 µM in each case.

Turning to `C=CC(=O)Nc1cc(N2CCC(N3CCCCC3)CC2)c(C)cc1Nc1ncc(C#N)c(Nc2ccccc2OC(C)C)n1` [Example 11, N-(5-([1,4‘- bipiperidin]-1′-yl)-2-((5-cyano-4-((2-isopropoxyphenyl)amino)pyrimidin-2-yl)amino)-4-methylphenyl) acrylamide], the IC50 at FGFR4 kinase fell in the range of 0.01 to 0.05 µM. Also, the GI50 (on Ba/F3 ETV6-FGFR4 cells; in assay [1]) was 0.01 to 0.05 µM throughout.

With `C=CC(=O)Nc1cc(N2CCC(N3CCOCC3)CC2)c(C)cc1Nc1ncc(C#N)c(Nc2ccccc2OC(C)C)n1` [Example 12, N-(2-((5-cyano-4-((2-isopropoxyphenyl)amino)pyrimidin-2-yl)amino)-4-methyl-5-(4-morpholinopiperidin-1-yl)phenyl) acrylamide], the IC50 against FGFR4 kinase and against FGFR4 V550L kinase was 0.01 to 0.05 µM each time.

Turning to `C=CC(=O)Nc1cc(N2CCN(CC)CC2)ccc1Nc1ncc(C#N)c(Nc2ccc(C#N)cc2OC(C)C)n1` [Example 32, N-(2-((5-cyano-4-((4-cyano-2-isopropoxyphenyl)amino)pyrimidin-2-yl)amino)-5-(4-ethylpiperazin-1-yl)phenyl) acrylamide], the IC50 against FGFR4 V550L kinase fell in the range of 0.01 to 0.05 µM. Besides, the GI50 is not above 0.01 µM at Ba/F3 ETV6-FGFR4 cells and 0.01 to 0.05 µM in assay [1].

`C=CC(=O)Nc1cc(N2CCC(N(C)C)CC2)ccc1Nc1cc(Nc2ccccc2OC(C)C)c(C#N)cn1` [Example 82, N-(2-((5-cyano-4-((2-isopropoxyphenyl)amino)pyridin-2-yl)amino)-5-(4-(dimethylamino)piperidin-1-yl)phenyl)acrylamide] had an IC50 against FGFR4 kinase of 0.01 to 0.05 µM.

In the case of `C=CC(=O)Nc1cc(N2CCC(N3CCN(C)CC3)CC2)ccc1Nc1cc(Nc2ccccc2OC(C)C)c(C#N)cn1` [Example 83, N-(2-((5-cyano-4-((2-isopropoxyphenyl)amino)pyridin-2-yl)amino)-5-(4-(4-methylpiperazin-1-yl)piperidin-1-yl)phenyl)acrylamide], the IC50 at FGFR4 kinase was in the range of 0.01 to 0.05 µM.

The molecule `C=CC(=O)Nc1cc(N2CCN(CC)CC2)ccc1Nc1cc(Nc2ccccc2OC(C)C)c(C#N)cn1` [Example 84, N-(2-((5-cyano-4-((2-isopropoxyphenyl)amino)pyridin-2-yl)amino)-5-(4-ethylpiperazin-1-yl)phenyl)acrylamide] yielded an IC50 against FGFR4 kinase of 0.01 to 0.05 µM.
